Laboratory results reported in ChEMBL document CHEMBL1141949, “In silico fragment-based discovery of indolin-2-one analogues as potent DNA gyrase inhibitors” (Bioorg Med Chem Lett, 2005).

What follows are compounds tested against DNA gyrase (Escherichia coli) (UniProt P0AES6+P0AES4) (assay: In vitro activity against Escherichia coli DNA gyrase supercoiling).
Format: protein-complex assay

Row | Structure (SMILES) | MNEC [µM]
1 | O=C1N=C(N2CCOCC2)S/C1=C1\C(=O)Nc2ccccc21 | > 100
2 | O=C1Nc2ccccc2/C1=C/c1ccccc1N1CCOCC1 | > 100
3 | O=C1Nc2ccccc2/C1=C/c1c[nH]nc1-c1cccs1 | > 100
4 | Cc1[nH]c2ccccc2c1/C=C1\C(=O)Nc2ccccc21 | > 100
5 | O=C1Nc2ccccc2/C1=C/c1c[nH]c2cc([N+](=O)[O-])ccc12 | > 100
6 | CCc1nc(C)c(/C=C2\C(=O)Nc3ccccc32)[nH]1 | 25
7 | Cc1ccc2c(c1)/C(=N/N=C/c1c(O)ccc3ccccc13)C(=O)N2 | > 100
8 | O=C1Nc2ccccc2/C1=C/c1ccc([N+](=O)[O-])cc1 | > 100
9 | O=C1Nc2ccccc2/C1=C/c1c[nH]c(-c2ccccc2)n1 | > 100
10 | O=C1Nc2ccccc2/C1=C/c1cccnc1 | > 100
11 | O=C(/N=N/c1c(O)[nH]c2ccc(Br)cc12)c1ccncc1 | > 100
12 | Oc1[nH]c2ccccc2c1/N=N/c1n[nH]c2c3ccccc3nc-2n1 | > 100
13 | CCCCc1nc(/C=C2\C(=O)Nc3ccccc32)c[nH]1 | 50
14 | O=C1Nc2ccccc2/C1=N/c1ccc(C(F)(F)F)cc1 | > 100
15 | CCc1nc(/C=C2\C(=O)Nc3ccccc32)c[nH]1 | < 100
16 | O=C1Nc2ccccc2/C1=C/c1cnc[nH]1 | 100
